Patent publication US20230123334A1, “AMINO LIPID COMPOUND, PREPARATION METHOD THEREFOR, AND APPLICATION THEREOF” (SHENZHEN SHENXIN BIOTECHNOLOGY CO., LTD., priority 2020, published 2023)

What was measured:
[1] = tested on: BALB/c mice; experiment: In vivo delivery of ovalbumin mRNA (OVA mRNA) and immunity, IgG antibody titer by ELISA; conditions: OVA mRNA LNPs 0.5 mg/kg Day 0 and Day 7, serum Day 21, versus DLin-MC3 control, FIG. 1
Method: The amino lipid compound of the invention was mixed with DOPE, cholesterol and PEG2000-DMG in a molar ratio of 50:10:38.5:1.5 and dissolved in absolute ethanol such that the molar concentration of the amino lipid compound was 0.001-0.01 mmol/L. Ovalbumin mRNA (OVA mRNA, TriLink) was dissolved in sodium acetate solution (50 mM, pH=4.0). By using a microinjection pump, the resultant ethanol solution and sodium acetate solution (50 mM, pH=4.0) were mixed in a volume ratio of 1:3 in a microchannel chip to prepare a crude solution of lipid nanoparticles, which was then dialyzed in 1×PBS at a controlled temperature of 4° C. for 6 h using a dialysis box (Fisher, MWCO 20,000), and filtered through a 0.22 μm microporous filter membrane before use. The mass ratio of the amino lipid compound to ovalbumin mRNA (OVA mRNA) was about 10:1.
(§1) Animal Preparation: 6-week aged female BALB/c mice weighed about 20 g were selected and fed in a SPF-grade feeding room. Animal tests were conducted strictly according to the guidelines of national health institutions and the requirements of animal ethics.
In vivo delivery: 3 mice were assigned randomly to each group, and the lipid nanoparticle solution was intramuscularly injected into the leg at a dosage of 0.5 mg/kg mRNA (Day 0). After 7 days, one booster injection was performed at the same dosage (Day 7). On Day 21, blood was taken from the tail vein for serological analysis. DLin-MC3 was used as control (FIG. 1).
Enzyme-linked immunosorbent assay (ELISA): a flat-bottomed 96-well plate (Nunc) was pre-coated, with a concentration of OVA protein of 0.5 μg protein per well in 50 mM carbonate buffer (pH 9.6), and was allowed to stay overnight at 4° C. and then blocked with 5% glycine. Serum obtained from animals receiving the lipid nanoparticle solution containing the mRNA was diluted from 10^2 to 10^6 times with PBS-0.05% Tween (PBS-T) at pH 7.4, and added to the wells, incubated at room temperature and placed at 37° C. for 1 h. Horseradish peroxidase (HRP, Invitrogen) coupled goat anti-mouse IgG was used for labeling in PBS-T-1% BSA at a dilution rate of 1:10,000. After addition of the HRP substrate, the absorbance at 450 nm was measured in ELISA microplate reader (Bio-Rad).

[2] = Particle size and PDI of lipid nanoparticles (Nano-ZSZEN3600, Malvern); assay type: physicochemical; conditions: LNPs; for Particle size (nm): Fluc mRNA
Method: (§2) The amino lipid compound of the invention was mixed with DOPE, cholesterol and PEG2000-DMG in a molar ratio of 45:10:42.5:2.5, and dissolved in absolute ethanol such that the molar concentration of the amino lipid compound was 0.001-0.01 mmol/L. By using a microinjection pump, the resultant ethanol solution and a sodium acetate solution (50 mM, pH=4.0) in which luciferase mRNA (Fluc mRNA, TriLink) was dissolved were mixed in a volume ratio of 1:3 in a microchannel chip to prepare a crude solution of lipid nanoparticles, which was then dialyzed in 1×PBS at a controlled temperature of 4° C. for 6 h using a dialysis box (Fisher, MWCO 20,000) and filtered through a 0.22 μm microporous filter membrane before use. The mass ratio of the amino lipid compound to Fluc mRNA was about 10:1. The resultant solution of lipid nanoparticles (LNPs) was administered to the tested animals by subcutaneous administration.
Characterization of particle size: the particle size and PDI of the prepared lipid nanoparticles were determined by Nano-ZSZEN3600 (Malvern). 40 uL of LNP solution was taken for particle size measurement with circulation for three times, 30 s for each circulation.
(§3) The preparation method was the same as Formulation method 1, except that amino lipid compound, DSPC, cholesterol and PEG2000-DMG were used in a molar ratio of 50:10:38.5: 1.5. The resultant solution of lipid nanoparticles (LNPs) was administered to the tested animals by tail vein and intramuscular injection.

[3] = Encapsulation rate of LNP RNA (Qubit RNA HS Assay kit); assay type: physicochemical; conditions: LNPs
Method: as §2
Detection of encapsulation rate: the concentration of LNP RNA was detected by Qubit® RNA HS Assay kit. The theoretical RNA concentration was given by the total amount of RNA input divided by the total volume of the final solution.
as §3

[4] = tested on: BALB/c mice; experiment: In vivo delivery of luciferase mRNA (Fluc mRNA) by lipid nanoparticles, in vivo imaging; conditions: 0.5 mg/kg Fluc mRNA, after 12 hours
Method: as §2, §3, §1
In vivo delivery: 9 mice were assigned randomly to each group, and the lipid nanoparticle solution was injected by three routes of administration, i.e., subcutaneous, intramuscular and tail vein injection at a dosage of 0.5 mg/kg Fluc mRNA (3 mice for each route of administration). After 12 hours, 200 μL of 10 mg/mL potassium salt of […] (PerkinElmer) was injected into each mouse through the tail vein. After 10 min, the mice were placed under an in vivo imaging system (IVIS-200, Xenogen) to observe the total fluorescence intensity of each mouse and take photographs for record. The expression intensity of Fluc mRNA delivered by representative amino lipid compounds through the three routes of administration are shown in Table 5-7. DLin-MC3 was used as control.

[5] = tested on: MCF7 cells; experiment: Transfection of MCF7 cell line, mRNA vectors; assay type: cell-based; conditions: 50 ng EGFP mRNA per well
Procedure, shortened: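 Efficiency was scored as the fraction of GFP-fluorescent cells over all Hoechst-counted cells after delivery of 50 ng EGFP mRNA per well. Cells were MCF7 grown in serum-supplemented DMEM, and Lipofectamine2000 served as reference.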

[6] = tested on: Hela cells; experiment: Transfection of Hela cell line, mRNA vectors; assay type: cell-based; conditions: 50 ng EGFP mRNA per well
Procedure, shortened: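 Transfection efficiency was scored as GFP-fluorescent cells over Hoechst-stained total nuclei, with Lipofectamine2000 as reference reagent. Each well of HeLa cells, grown in DMEM plus 10% FBS, received 50 ng EGFP mRNA.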

[7] = tested on: MCF7 cells; experiment: Transfection of MCF7 cell line, DNA vectors; assay type: cell-based; set-up: concentration or dose not given beside the values; conditions: plasmid DNA, GFP cells / total cells
Procedure, shortened: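 Read-out: GFP-positive cells as % of all Hoechst-stained nuclei after 96-well transfection of MCF7 cells grown in serum-supplemented DMEM. Positive control was Lipofectamine2000, used per manufacturer's protocol.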

[8] = tested on: HEK293 cells; experiment: Preliminary screening as DNA vectors, GFP transfection of HEK293 cells; assay type: cell-based; conditions: HEK293 cells; lipid/DOPE liposome with 75 ng plasmid DNA (psin-EGFP-IRES-Puro); number of cells expressing GFP divided by total number of nuclei (Hoechst)
Procedure, shortened: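 HEK293 cells in DMEM/10% FBS transfected with 75 ng EGFP plasmid per well complexed with amino lipid/DOPE liposomes in pH 5.6 sodium acetate. Hoechst nuclear stain added 20-24 h post-transfection, then cells cultured another 20-24 h. Confocal imaging gives GFP-positive cells as % of total nuclei.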

[9] = tested on: Hela cells; experiment: Transfection of Hela cell line, DNA vectors; assay type: cell-based; conditions: 75 ng plasmid DNA, GFP cells / total cells
Procedure, shortened: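 Amino lipid/DOPE liposomes in sodium acetate pH 5.6 were complexed with 75 ng psin-EGFP-IRES-Puro plasmid for 30 min at room temperature, then mixed with 3-5×10^4 Hela cells in DMEM/10% FBS at 37° C. Hoechst stain after 20-24 h, imaging after a further 20-24 h. Efficiency = GFP-positive cells / total nuclei.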

[10] = tested on: HEK293 cells; experiment: Preliminary screening as mRNA vectors, EGFP mRNA transfection of HEK293 cells; assay type: cell-based; conditions: HEK293 cells, 96-well plates, EGFP mRNA 50 ng per well; percentage of GFP fluorescent cells relative to total number of cells (Hoechst)
Procedure, shortened: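 HEK293 cells in DMEM plus 10% FBS transfected in 96-well format with 50 ng EGFP mRNA per well; Lipofectamine2000 served as positive control. Read-out is the percentage of GFP-fluorescent cells among total cells, counted by Hoechst nuclear stain.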

[11] = Formulation Method 1 (amino lipid:DOPE:cholesterol:PEG2000-DMG 45:10:42.5:2.5)
[12] = Formulation method 2 (amino lipid:DSPC:cholesterol:PEG2000-DMG 50:10:38.5:1.5)

PDI ([2]; Formulation Method 1) | Particle size (nm) [2, 11] [nm] | PDI ([2]; Formulation method 2) | Particle size (nm) [2, 12] [nm] | Encapsulation rate ([3]; Formulation Method 1) [%] | Encapsulation rate ([3]; Formulation method 2) [%] | SMILES | IgG antibody titer [1] | Fluorescence intensity (expression intensity of Fluc mRNA) ([4]; intramuscular administration) | Fluorescence intensity (expression intensity of Fluc mRNA) ([4]; subcutaneous administration) | Fluorescence intensity (expression intensity of Fluc mRNA) ([4]; tail vein administration) | Absolute mRNA transfection efficiency in MCF7 cells [5] [%] | Absolute mRNA transfection efficiency in Hela cells [6] [%] | Absolute DNA transfection efficiency in MCF7 cells [7] [%] | Absolute DNA transfection efficiency in HEK293 cells [8] [%] | Absolute DNA transfection efficiency in Hela cells [9] [%] | Absolute mRNA transfection efficiency in HEK293 cells [10] [%]
0.01 | 102 ± 5 | 0.05 | 92 ± 5 | 98.6 | 99.2 | CCCCCCCCCCCCCCCCSc1nc(NCCCCCCC)nc(NCCCN2CCN(C)CC2)n1 [Compound S16N7D9] | significantly superior to that of the control | 4.3E+07 | 1.4E+07 | 5.1E+07 |  |  |  |  |  | 
0.02 | 88 ± 5 | 0.03 | 88 ± 5 | 99.6 | 99.2 | CCCCCCCC/C=C\CCCCCCCCSc1nc(OCCN2CCCC2)nc(SCCCCCCCCC)n1 [Compound S19S9O8] | significantly superior to that of the control | 9.1E+07 | 1.1E+07 | 1.1E+08 |  |  |  |  |  | 
0.04 | 110 ± 5 | 0.05 | 110 ± 5 | 99.2 | 99.0 | CCCCCCCC/C=C\CCCCCCCCSc1nc(OCC2CCN(C)CC2)nc(SCCCCCCCCC)n1 [Compound S19S9O9] | significantly superior to that of the control | 1.8E+07 | 2.8E+07 | 3.1E+07 |  |  |  |  |  | 

The next lines start with the compound.

SMILES | PDI ([2]; Formulation Method 1) | Particle size (nm) [2, 11] [nm] | PDI ([2]; Formulation method 2) | Particle size (nm) [2, 12] [nm] | Encapsulation rate ([3]; Formulation Method 1) [%] | Encapsulation rate ([3]; Formulation method 2) [%] | IgG antibody titer [1] | Fluorescence intensity (expression intensity of Fluc mRNA) ([4]; intramuscular administration) | Fluorescence intensity (expression intensity of Fluc mRNA) ([4]; subcutaneous administration) | Fluorescence intensity (expression intensity of Fluc mRNA) ([4]; tail vein administration) | Absolute mRNA transfection efficiency in MCF7 cells [5] [%] | Absolute mRNA transfection efficiency in Hela cells [6] [%] | Absolute DNA transfection efficiency in MCF7 cells [7] [%] | Absolute DNA transfection efficiency in HEK293 cells [8] [%] | Absolute DNA transfection efficiency in Hela cells [9] [%] | Absolute mRNA transfection efficiency in HEK293 cells [10] [%]
CCCCCCCCCCCCCCCCCCSc1nc(NCCN2CCCC2)nc(SCCCCCCC)n1 [Compound S7S18D3] | 0.10 | 121 ± 5 | 0.04 | 95 ± 5 | 99.5 | 99.3 | significantly superior to that of the control | 8.7E+07 | 2.9E+08 | 8.1E+07 |  |  |  |  |  | 
CCCCCCCCCCCCCCCCSc1nc(NCCN2CCN(C)CC2)nc(SCCCCCCCCC)n1 [Compound S9S16D5] | 0.04 | 152 ± 5 | 0.05 | 130 ± 5 | 99.1 | 99.6 |  | 5.2E+06 | 4.2E+07 | 7.5E+06 | 32.0 | 11.7 | 26.6 | 23.5 | 11.7 | 47.8
